Read-outs that look alike come from different tables or passages of the source.
Columns and labels:
[1] = Microbiological keeping time of bottled orange juice drink without sorbate (Example 3); conditions: 0.5 l PET bottles, 500 ppm limonene-containing mixture and/or 200 ppm of DMDC, visual and organoleptic inspection
Text: The samples were thereafter regularly inspected visually and organoleptically.

Lactobacillus brevis = assay: Microbiological colony count determination in inoculated apple juice/water 1:1 after 24 hours; assay type: cell-based; conditions: Cell inoculum approximately 100 cells/ml; DMDC concentration not given; duplicate
Saccharomyces cerevisiae = assay: Activity of DMDC, LF and their mixtures in inoculated apple juice drink, cell count after one week; assay type: cell-based; conditions: inoculum 375 cells/ml
Experimental: The activity of the individual components DMDC and limonene (in a formulation) and the activity of mixtures of DMDC and limonene (in a formulation) was tested against Saccharomyces cerevisiae.
For this, an apple juice drink was inoculated with 375 cells of Saccharomyces cerevisiae per ml and the active ingredient concentrations reported in Table 1 were added. In the table, DMDC is dimethyl dicarbonate, added as such.
LF was added first and then DMDC. Subsequently thereto the mixtures were thoroughly shaken and incubated at 26° C. for one week. The cell count present was then determined.

[2] = orange juice drink with potassium sorbate equivalent to 100 ppm of sorbic acid, 0.5 l PET bottles; 500 ppm limonene-containing mixture and/or 200 ppm of DMDC; visual and organoleptic inspection
Experimental: Thereafter the drink was packaged directly on a drinks bottling line (10 000 l/h) into 0.5 l PET bottles.
In this case the limonene-containing mixture was added during final mixing of the drink, whereas for metering DMDC, an electromagnetic metering pump connected upstream of the filler was used.
As comparative experiment, the same drink was packaged non-preserved, or packaged treated only with DMDC or only with limonene.

SMILES | microbiological keeping time [1] | cell count determination after 24 hours (Lactobacillus brevis) | efficacy, defined as freedom from cells (concentration, component alone) (Saccharomyces cerevisiae) | microbiological keeping time [2]
COC(=O)OC(=O)OC [DMDC, dimethyl dicarbonate] | approximately 20 days | 54/75 | above 150 ppm | –
C/C=C/C=C/C(=O)O [sorbic acid] | – | – | – | approximately 6 days

Reference: patent US20120021117A1, “METHOD FOR PRESERVING DRINKS” (LANXESS DEUTSCHLAND GMBH, priority 2008, published 2012)
